DBAASP
Values after ≈ are worked out from the molar mass of the structure shown. One block for each compound: values may come before it.

Experiments:
Assay in all cases: ≥ marks a high value that may be exact or a test limit, other limits are often not marked, values filed in µg/mL are converted to µM
[1] = test system: Acinetobacter baumannii CCARM 12035
[2] = test system: Acinetobacter baumannii KCTC 2508
[3] = test system: Bacillus subtilis KCTC 3068
[4] = test system: Escherichia coli CCARM 1229
[5] = test system: Escherichia coli KCTC 1682
[6] = test system: Pseudomonas aeruginosa CCARM 2002
[7] = test system: Pseudomonas aeruginosa KCTC 2004
[8] = test system: Salmonella typhimurium CCARM 8007
[9] = test system: Salmonella typhimurium KCTC 1926
[10] = test system: Staphylococcus aureus CCARM 3126
[11] = test system: Staphylococcus aureus KCTC 1621
[12] = test system: Staphylococcus epidermidis KCTC 1917
Acinetobacter baumannii = test system: Acinetobacter baumannii
[13] = test system: Escherichia coli ATCC 25922
Escherichia coli K88 = test system: Escherichia coli K88
Escherichia coli K99 = test system: Escherichia coli K99
Escherichia coli UB1005 = test system: Escherichia coli UB1005
Escherichia coli = test system: Escherichia coli
Klebsiella pneumoniae = test system: Klebsiella pneumoniae
[14] = test system: Pseudomonas aeruginosa ATCC 27853
[15] = test system: Pseudomonas aeruginosa CICC 21625
[16] = test system: Pseudomonas aeruginosa CICC 21630
[17] = test system: Pseudomonas aeruginosa PAO1
Pseudomonas aeruginosa = test system: Pseudomonas aeruginosa
[18] = test system: Salmonella enterica subsp. enterica serovar Pullorum C79-13
[19] = test system: Salmonella enterica subsp. enterica serovar Typhimurium ATCC 14028
[20] = test system: Salmonella enterica subsp. enterica serovar Typhimurium C77-31
[21] = test system: Pseudomonas aeruginosa H1001
[22] = test system: Acinetobacter baumannii Josh 230
[23] = test system: Acinetobacter baumannii Josh 28
[24] = test system: Enterobacter asburiae St. L P23
[25] = test system: Enterobacter cloacae BB2012-181
[26] = test system: Enterobacter cloacae BB2013-32
[27] = test system: Enterobacter cloacae St. L P23
[28] = test system: Escherichia coli ARLG-1012
[29] = test system: Escherichia coli BB2013-30
Escherichia coli BW25113 = test system: Escherichia coli BW25113
Escherichia coli JW55034 = test system: Escherichia coli JW55034
[30] = test system: Klebsiella aerogenes St. L P63
[31] = test system: Klebsiella pneumoniae BB2009-209
[32] = test system: Klebsiella pneumoniae J3702
[33] = test system: Klebsiella pneumoniae Oschner KP-1
[34] = test system: Pseudomonas aeruginosa BB2013-100
[35] = test system: Pseudomonas aeruginosa J4228

- MIC [1]: 16 µM (≈ 23.6 µg/mL)
- MIC [2]: ≥ 32 µM
- MIC [3]: 16 µM (≈ 23.6 µg/mL)
- MIC [4]: ≥ 32 µM
- MIC [5]: 8 µM (≈ 11.8 µg/mL)
- MIC [6]: ≥ 32 µM
- MIC [7]: 8 µM (≈ 11.8 µg/mL)
- MIC [8]: 16 µM (≈ 23.6 µg/mL)
- MIC [9]: ≥ 32 µM
- MIC [10]: ≥ 32 µM
- MIC [11]: 8 µM (≈ 11.8 µg/mL)
- MIC [12]: ≥ 32 µM
Compound: CC[C@H](C)[C@H](NC(=O)[C@H](CCCCN)NC(=O)[C@H](Cc1c[nH]c2ccccc12)NC(=O)[C@@H](N)CCCN=C(N)N)C(=O)N[C@@H](Cc1ccccc1)C(=O)N[C@@H](CCCCN)C(=O)N[C@@H](CCCCN)C(=O)N[C@@H](C)C(=O)N[C@@H](C)C(=O)N[C@@H](CCCCN)C(=O)N[C@@H](CCCCN)C(=O)N[C@@H](C)C(N)=O [RWKIFKKAAKKA]

- MIC (Acinetobacter baumannii): 4 µM (≈ 10.9 µg/mL)
- MIC [13]: 64 µM (≈ 174 µg/mL)
- MIC (Escherichia coli K88): 8 µM (≈ 21.8 µg/mL)
- MIC (Escherichia coli K99): 16 µM (≈ 43.6 µg/mL)
- MIC (Escherichia coli UB1005): ≥ 32 µM
- MIC (Escherichia coli): 64 µM (≈ 174 µg/mL)
- MIC (Klebsiella pneumoniae): > 64 µM
- MIC [14]: > 64 µM
- MIC [15]: ≥ 64 µM
- MIC [16]: ≥ 64 µM
- MIC [17]: > 64 µM
- MIC (Pseudomonas aeruginosa): > 64 µM
- MIC [18]: 8 µM (≈ 21.8 µg/mL)
- MIC [19]: 16 µM (≈ 43.6 µg/mL)
- MIC [20]: ≥ 32 µM
Compound: CC(C)[C@H](N)C(=O)N[C@@H](CCCN=C(N)N)C(=O)N1CCC[C@H]1C(=O)N[C@H](C(=O)N[C@H](C(=O)N[C@@H](CCCN=C(N)N)C(=O)N1CCC[C@H]1C(=O)N[C@H](C(=O)N[C@H](C(=O)N[C@@H](CCCN=C(N)N)C(=O)N1CCC[C@H]1C(=O)N[C@H](C(=O)N[C@H](C(=O)N[C@@H](CCCN=C(N)N)C(=O)N1CCC[C@H]1C(=O)N[C@H](C(=O)N[C@H](C(=O)N[C@@H](CCCN=C(N)N)C(=O)N1CCC[C@H]1C(=O)N[C@H](C(=O)N[C@H](C(=O)N[C@@H](CCCN=C(N)N)C(=O)N1CCC[C@H]1C(=O)N[C@H](C(N)=O)C(C)C)C(C)C)C(C)C)C(C)C)C(C)C)C(C)C)C(C)C)C(C)C)C(C)C)C(C)C)C(C)C [VRPVVRPVVRPVVRPVVRPVVRPV]

- MIC [21]: ≥ 208 µM
Compound: NC(=O)[C@H](CCCN=C(N)N)NC(=O)[C@H](CCCN=C(N)N)NC(=O)[C@H](Cc1c[nH]c2ccccc12)NC(=O)[C@H](CCCN=C(N)N)NC(=O)[C@H](Cc1c[nH]c2ccccc12)NC(=O)[C@H](Cc1c[nH]c2ccccc12)NC(=O)[C@@H](N)CCCN=C(N)N [RWWRWRR]

- MIC [21]: 0.0328 µM (≈ 0.08 µg/mL)
Compound: CC(C)C[C@H](NC(=O)[C@H](Cc1ccc(O)cc1)NC(=O)[C@@H]1CCCN1C(=O)[C@@H]1CCCN1C(=O)[C@H](CCCCN)NC(=O)[C@H](CC(=O)O)NC(=O)[C@@H](N)C(C)C)C(=O)N1CCC[C@H]1C(=O)N[C@@H](CCCN=C(N)N)C(=O)N1CCC[C@H]1C(=O)N[C@@H](CCCN=C(N)N)C(=O)N1CCC[C@H]1C(=O)N1CCC[C@H]1C(=O)N[C@@H](CCCN=C(N)N)C(=O)N[C@@H](CCCN=C(N)N)C(=O)N[C@@H](CS)C(=O)N[C@@H](Cc1ccc(O)cc1)C(=O)N[C@@H](CC(N)=O)C(=O)N[C@@H](CCCN=C(N)N)C(=O)NCC(=O)O [VDKPPYLPRPRPPRRCYNRG]

- MIC [1]: 16 µM (≈ 23.4 µg/mL)
- MIC [2]: ≥ 32 µM
- MIC [3]: 16 µM (≈ 23.4 µg/mL)
- MIC [4]: ≥ 32 µM
- MIC [5]: 8 µM (≈ 11.7 µg/mL)
- MIC [6]: 16 µM (≈ 23.4 µg/mL)
- MIC [7]: 8 µM (≈ 11.7 µg/mL)
- MIC [8]: 16 µM (≈ 23.4 µg/mL)
- MIC [9]: 16 µM (≈ 23.4 µg/mL)
- MIC [10]: 16 µM (≈ 23.4 µg/mL)
- MIC [11]: 16 µM (≈ 23.4 µg/mL)
- MIC [12]: ≥ 32 µM
Compound: CC[C@H](C)[C@H](NC(=O)[C@H](CCCCN)NC(=O)[C@H](Cc1c[nH]c2ccccc12)NC(=O)[C@@H](N)CCCN=C(N)N)C(=O)N[C@@H](Cc1ccccc1)C(=O)N[C@@H](CCCCN)C(=O)N[C@@H](CCCCN)C(=O)N[C@@H](C)C(=O)N[C@@H](C)C(=O)N[C@@H](CCCCN)C(=O)N[C@@H](CCCCN)C(=O)NCC(N)=O [RWKIFKKAAKKG]

- MIC [22]: 9.83 µM (≈ 16 µg/mL)
- MIC [23]: 2.46 µM (≈ 4 µg/mL)
- MIC [24]: 19.7 µM (≈ 32 µg/mL)
- MIC [25]: 19.7 µM (≈ 32 µg/mL)
- MIC [26]: 19.7 µM (≈ 32 µg/mL)
- MIC [27]: 19.7 µM (≈ 32 µg/mL)
- MIC [28]: 4.92 µM (≈ 8 µg/mL)
- MIC [29]: 9.83 µM (≈ 16 µg/mL)
- MIC (Escherichia coli BW25113): 4.92 µM (≈ 8 µg/mL)
- MIC (Escherichia coli JW55034): 4.92 µM (≈ 8 µg/mL)
- MIC [30]: 19.7 µM (≈ 32 µg/mL)
- MIC [31]: 19.7 µM (≈ 32 µg/mL)
- MIC [32]: 19.7 µM (≈ 32 µg/mL)
- MIC [33]: 19.7 µM (≈ 32 µg/mL)
- MIC [14]: 2.46 µM (≈ 4 µg/mL)
- MIC [34]: 19.7 µM (≈ 32 µg/mL)
- MIC [35]: 4.92 µM (≈ 8 µg/mL)
Compound: CC[C@H](C)[C@H](NC(=O)[C@H](C)N)C(=O)N[C@@H](CCCCN)C(=O)N[C@H](C(=O)N[C@@H](CCCN=C(N)N)C(=O)N[C@@H](CCCCN)C(=O)N[C@@H](CC(C)C)C(=O)N[C@@H](Cc1ccccc1)C(=O)N[C@@H](CCCCN)C(=O)N[C@@H](CCCCN)C(=O)N[C@@H](CC(C)C)C(=O)N[C@@H](CC(C)C)C(=O)N[C@@H](CCCN=C(N)N)C(N)=O)[C@@H](C)CC [AIKIRKLFKKLLR]

- MIC [22]: 2.5 µM (≈ 4 µg/mL)
- MIC [23]: 1.25 µM (≈ 2 µg/mL)
- MIC [24]: 20 µM (≈ 32 µg/mL)
- MIC [25]: 20 µM (≈ 32 µg/mL)
- MIC [26]: 10 µM (≈ 16 µg/mL)
- MIC [27]: 20 µM (≈ 32 µg/mL)
- MIC [28]: 5 µM (≈ 8 µg/mL)
- MIC [29]: 10 µM (≈ 16 µg/mL)
- MIC (Escherichia coli BW25113): 5 µM (≈ 8 µg/mL)
- MIC (Escherichia coli JW55034): 5 µM (≈ 8 µg/mL)
- MIC [30]: 10 µM (≈ 16 µg/mL)
- MIC [31]: 20 µM (≈ 32 µg/mL)
- MIC [32]: 20 µM (≈ 32 µg/mL)
- MIC [33]: 20 µM (≈ 32 µg/mL)
- MIC [14]: 5 µM (≈ 8 µg/mL)
- MIC [34]: 20 µM (≈ 32 µg/mL)
- MIC [35]: 10 µM (≈ 16 µg/mL)
Compound: CC[C@H](C)[C@H](NC(=O)[C@H](Cc1cnc[nH]1)NC(=O)[C@H](CCCCN)NC(=O)[C@H](CCCCN)NC(=O)[C@H](CC(C)C)NC(=O)[C@H](CCCCN)NC(=O)[C@H](CCCCN)NC(=O)[C@H](CC(C)C)NC(=O)[C@H](Cc1ccccc1)NC(=O)[C@H](Cc1ccccc1)NC(=O)[C@H](CCCCN)NC(=O)[C@@H](NC(=O)CN)[C@@H](C)CC)C(N)=O [GIKFFLKKLKKHI]
